Data taken from paper PMC12695923, “The role of N185D substitution in enhancing activity of BaqA∆C α-amylase” (Scientific Reports, 2025).

Molecular target: T1, BaqAΔC (Rossellomorea aquimaris, UniProt G8IJA7)
T1 construct: gene baqA
T1 sequence (G8IJA7 24-478): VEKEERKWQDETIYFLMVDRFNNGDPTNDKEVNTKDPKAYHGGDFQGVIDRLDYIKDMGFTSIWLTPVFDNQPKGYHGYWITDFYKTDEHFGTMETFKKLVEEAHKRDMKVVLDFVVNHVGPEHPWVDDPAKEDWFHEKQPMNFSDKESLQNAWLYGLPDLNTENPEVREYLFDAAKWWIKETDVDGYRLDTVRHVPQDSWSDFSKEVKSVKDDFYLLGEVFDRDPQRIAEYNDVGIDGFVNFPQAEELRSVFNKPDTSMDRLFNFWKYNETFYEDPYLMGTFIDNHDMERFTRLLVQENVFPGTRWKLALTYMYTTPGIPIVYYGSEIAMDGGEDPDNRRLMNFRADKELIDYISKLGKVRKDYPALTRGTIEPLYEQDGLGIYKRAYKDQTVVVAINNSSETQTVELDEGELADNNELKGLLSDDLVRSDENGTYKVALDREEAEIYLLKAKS
Experiment: intrinsic fluorescence quenching, modified Stern-Volmer plot
Type: binding
Conditions: 50 mM HEPES pH 8; 15 min at 50 °C, spectra at 25 °C; n = 1.3; acarbose 15-75 mM

C[C@H]1O[C@H](O[C@H]2[C@H](O)[C@@H](O)[C@@H](O[C@H]3[C@H](O)[C@@H](O)C(O)O[C@@H]3CO)O[C@@H]2CO)[C@H](O)[C@@H](O)[C@@H]1N[C@H]1C=C(CO)[C@@H](O)[C@H](O)[C@H]1O (stereo partly shown) [acarbose]
Ka: 0.032 mL/mg
